Results as given in US8785460B2, “Tricyclic compounds and use thereof” (Takeda Pharmaceutical Company Limited, priority 2008, dated 2014).

Target: T1, human CRF1 receptor (Homo sapiens, UniProt P34998)
T1 construct: expressed in transfected cells; host or cells: CHO cells (membrane fraction)
T1 sequence (P34998 24-415): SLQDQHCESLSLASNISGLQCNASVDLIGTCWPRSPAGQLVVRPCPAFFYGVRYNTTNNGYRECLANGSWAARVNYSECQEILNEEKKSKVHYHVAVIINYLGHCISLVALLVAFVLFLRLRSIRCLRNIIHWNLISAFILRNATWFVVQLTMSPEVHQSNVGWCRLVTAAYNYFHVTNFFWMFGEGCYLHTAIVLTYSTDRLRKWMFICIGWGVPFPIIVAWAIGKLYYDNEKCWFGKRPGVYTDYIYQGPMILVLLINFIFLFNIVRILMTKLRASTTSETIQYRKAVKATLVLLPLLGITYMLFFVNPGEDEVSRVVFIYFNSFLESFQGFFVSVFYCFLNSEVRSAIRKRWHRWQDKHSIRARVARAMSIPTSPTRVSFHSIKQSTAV
Experiment: Measurement of CRF Binding Inhibitory Rate (receptor binding experiment with 125I-CRF)
Settings: human CRF1 receptor expressing CHO cellular membrane fraction, 50 pM 125I-CRF, room temperature 1.5 hr, 0.05 nM to 10 μM of compound; read-out: IC50 values (CRF binding inhibition)
Procedure: Measurement of CRF Binding Inhibitory Rate
A receptor binding experiment was carried out using a human CRF1 receptor expressing CHO cellular membrane fraction and ovine CRF, [^125I]-tyr^0(^125I-CRF). 1000 nM of a test compound was incubated with 1 μg of human CREF receptor expressing CHO cellular membrane fraction and 50 pM of ^125I-CRF in a binding assay buffer (50 mM Tris-HCl, 5 mM EDTA, 10 mM MgCl2, 0.05% CHAPS, 0.1% BSA, 0.5 mM PMSF, 0.1 μg/mL pepstatin, 20 μg/mL leupeptin, pH 7.5). In addition, for measuring nonspecific binding (NSB), 0.1 μM unlabelled human Urocortin was incubated with 5 μg of human CRE receptor expressing CHO cellular membrane fraction and 50 pM of ^125I-CRF in a binding assay buffer. After a binding reaction was carried out at room temperature for 1.5 hr, the membrane was entrapped on a glass filter (UniFilter plate GF-C/Perkin Elmer) by suction filtration using a cell harvester (Perkin Elmer), and washed with ice-cooled 50 mM Tris-HCl (pH 7.5). After drying the glass filter, a liquid scintillation cocktail (Microscinti 0, Perkin Elmer) was added, and the radioactivity of ^125I-CRF remaining on a glass filter was measured using Topcount (Perkin Elmer).
(TB−SB)/(TB−NSB)×100 (SB: radioactivity when a compound is added, TB: maximum binding radioactivity, NSB: nonspecific binding radioactivity) were calculated to obtain binding inhibitory rates under the range of the presence from 0.05 nM to 10 μM of each compound. The IC50 values were calculated by using GraphPad Prism software.

Compound | IC50
CCOc1ccc(N2CCCn3c2nc2c(Cl)ccc(C(OC(F)F)=C(F)F)c23)c(C)n1 [Example 286, 9-Chloro-6-[1-(difluoromethoxy)-2,2-difluoroethenyl]-1-(6-ethoxy-2-methylpyridin-3-yl)-1,2,3,4-tetrahydropyrimido[1,2-a]benzimidazole] | < 1000 nM
CCOc1ccc(N2CCCn3c2nc2c(Cl)ccc(C(OC(F)F)C(F)(F)F)c23)c(C)n1 (centres unmarked) [Example 287, 9-Chloro-6-[1-(difluoromethoxy)-2,2,2-trifluoroethyl]-1-(6-ethoxy-2-methylpyridin-3-yl)-1,2,3,4-tetrahydropyrimido[1,2-a]benzimidazole] | < 1000 nM
Cc1nc(OC(C)C)ccc1N1CCCn2c1nc1c(Cl)ccc(C(OC(F)F)C(F)(F)F)c12 (centres unmarked) [Example 288, 9-Chloro-6-[1-(difluoromethoxy)-2,2,2-trifluoroethyl]-1-[2-methyl-6-(1-methylethoxy)pyridin-3-yl]-1,2,3,4-tetrahydropyrimido[1,2-a]benzimidazole] | < 1000 nM
Cc1nc(C(N)=O)ccc1N1CCCn2c1nc1c(Cl)ccc(C(OC(F)F)C(F)(F)F)c12 (centres unmarked) [Example 293, 5-{9-Chloro-6-[1-(difluoromethoxy)-2,2,2-trifluoroethyl]-3,4-dihydropyrimido[1,2-a]benzimidazol-1(2H)-yl}-6-methylpyridine-2-carboxamide] | < 1000 nM
CCC(c1ccc(Cl)c2nc3n(c12)CCCN3c1ccc(OC)nc1C)C(F)F (centres unmarked) [Example 303, 9-Chloro-6-[1-(difluoromethyl)propyl]-1-(6-methoxy-2-methylpyridin-3-yl)-1,2,3,4-tetrahydropyrimido[1,2-a]benzimidazole] | < 1000 nM
C=COC(CC)c1ccc(Cl)c2nc3n(c12)CCCN3c1ccc(Cl)cc1Cl (centres unmarked) [Example 305, 9-Chloro-1-(2,4-dichlorophenyl)-6-[1-(ethenyloxy)propyl]-1,2,3,4-tetrahydropyrimido[1,2-a]benzimidazole] | < 1000 nM
OC(c1ccc(Cl)c2nc3n(c12)CCCN3c1ccc(Cl)cc1Cl)C(F)(F)F (centres unmarked) [Example 307, 1-[9-Chloro-1-(2,4-dichlorophenyl)-1,2,3,4-tetrahydropyrimido[1,2-a]benzimidazol-6-yl]-2,2,2-trifluoroethanol] | < 1000 nM
CCC(CC#N)c1ccc(Cl)c2nc3n(c12)CCCN3c1ccc(Cl)cc1Cl (centres unmarked) [Example 316, 3-[9-Chloro-1-(2,4-dichlorophenyl)-1,2,3,4-tetrahydropyrimido[1,2-a]benzimidazol-6-yl]pentanenitrile] | < 1000 nM
CCC(c1ccc(Cl)c2nc3n(c12)CCCN3c1ccc(Cl)cc1Cl)C(O)C(F)(F)F (centres unmarked) [Example 317, 3-[9-chloro-1-(2,4-dichlorophenyl)-1,2,3,4-tetrahydropyrimido[1,2-a]benzimidazol-6-yl]-1,1,1-trifluoropentan-2-ol] | < 1000 nM
CCC(C(=O)C(F)(F)F)c1ccc(Cl)c2nc3n(c12)CCCN3c1ccc(Cl)cc1Cl (centres unmarked) [Example 318] | < 1000 nM
COC(=O)c1ccc(Cl)c2nc3n(c12)CCCCN3c1ccc(OC)cc1Cl [Example 330, Methyl 10-chloro-1-(2-chloro-4-methoxyphenyl)-2,3,4,5-tetrahydro-1H-[1,3]diazepino[1,2-a]benzimidazole-7-carboxylate] | < 1000 nM
COc1ccc(N2CCCCn3c2nc2c(Cl)ccc(CO)c23)c(Cl)c1 [Example 331, [10-Chloro-1-(2-chloro-4-methoxyphenyl)-2,3,4,5-tetrahydro-1H-[1,3]diazepino[1,2-a]benzimidazol-7-yl]methanol] | < 1000 nM
CCN(CC)c1cccc2nc3n(c12)CC(F)(F)CCN3c1ccc(Cl)cc1Cl [Example 359, 1-(2,4-Dichlorophenyl)-N,N-diethyl-4,4-difluoro-2,3,4,5-tetrahydro-1H-[1,3]diazepino[1,2-a]benzimidazol-7-amine] | < 1000 nM
CCN(CC)c1cccc2nc3n(c12)CC(N=[N+]=[N-])CCN3c1ccc(Cl)cc1Cl (centres unmarked) [Example 361, 4-Azido-1-(2,4-dichlorophenyl)-N,N-diethyl-2,3,4,5-tetrahydro-1H-[1,3]diazepino[1,2-a]benzimidazol-7-amine] | < 1000 nM
